Experimental data: patent US11591604B2, “Gene expression in Bacteroides” (Massachusetts Institute of Technology, priority 2015, dated 2023)

Each substance was assayed on NanoLuc (assay: NanoLuc luciferase reporter expression from constitutive promoters and RBSs integrated with pNBU2). Settings: RBS combined with promoter PBT1311, NanoLuc reporter, three biological replicates.
Type: cell-based, B. thetaiotaomicron
Description: FIGS. 1A-1G. Genetic parts to control expression in B. thetaiotaomicron. (FIG. 1A) The ranges of gene expression are shown for the different gene regulation systems provided herein. (FIG. 1B) IntN2 catalyzes stable integration of pNBU2-based expression constructs into one of two attBT2 sites in the B. thetaiotaomicron genome. The two attBT2 sites (attBT2-1 at nucleotide (nt) 6,217,227 and attBT2-2 at nt 6,138,320) are in the 3′ ends of tRNA^Ser genes (BT_t71 and BT_t70, respectively). (FIG. 1C) Constitutive promoters and ribosome binding sites for the construction of gene expression libraries. The putative −33 and −7 regions of the PBT1311 promoter, the Shine-Delgarno sequence, and the start codon are indicated by black boxes. Numbers below the black boxes represent nucleotide locations relative the PBT1311 transcription start site. The 26 nt sequences introduced in the PAM promoters are shown (see also FIGS. 6A-6B). Numbers at the edges of the boxes indicate the PBT1311 nucleotides replaced or the insertion site within the promoter. The location of residues randomized in the rpiL* RBS library are indicated with gray arrows (for library A: nt −14, −13, −12; for library B: nt −21, −18, −15; and for library C: nt −17, −16, −11; nt numbering is relative to the translation start site). (FIG. 1D) Activity was measured for a set of constitutive promoters and their cognate RBSs. Furthermore, a set of constitutive promoters (PBT1311, PAM1, PAM2, PAM3, PAM4) was combined with RBSs of varying strengths. Gene expression was measured using a luciferase reporter (NanoLuc). (FIG. 1E) Three large RBS libraries were constructed and combined with promoter PBT1311 to span 10^3-fold in gene expression. For reference, the parent rpiL* RBS is indicated with a black arrow. For D and E, error bars represent the standard deviation of three independent biological replicates made on separate days. (FIG. 1F) The strength of each RBS was compared to the predicted free energy of folding for the mRNA (ΔGfold,). (FIG. 1G) Strong (SEQ ID NO: 210) and weak (SEQ ID NO: 211) consensus sequences for the rpiL* −21 to −11 RBS region targeted by mutagenesis (residue locations are stated relative to the translation start site) are provided. Frequency logos were generated for the 11 strongest and 11 weakest RBSs by comparing the frequency of each nucleotide at each position in that group with the frequency of that nucleotide in that position in the full library. Position −20 and −19 were not randomized and are thus are not shown in the frequency logos.
All genetic parts in this study were characterized using the integration vector pNBU2 to ensure genetic stability of the constructs (FIG. 1B). The pNBU2 plasmid encodes the intN2 tyrosine integrase, which mediates sequence-specific recombination between the attN site of pNBU2 and one of two attBT sites located in the 3′ ends of the two tRNA^Ser genes, BT_t70 and BT_t71, on the B. thetaiotaomicron chromosome (FIG. 1B). Insertion of the pNBU2 plasmid inactivates the tRNA^Ser gene, and simultaneous insertion into both BT_t70 and BT_t71 is unlikely due to the essentiality of tRNA^Ser. pNBU2-based vectors have been used for single-copy complementation in B. thetaiotaomicron in in vitro studies (Koropatkin N M et al. Nat. Rev. Microbiol. 10:323-35, 2012) and in vivo mouse models (Martens E C et al. Cell Host Microbe 4:447-57, 2008).
B. thetaiotaomicron genetic parts were characterized with NanoLuc luciferase (Hall M P et al. ACS Chem. Biol. 7:1848-1857, 2012), which is a small (19 kDa) modified shrimp luciferase. Efforts to use members of the green fluorescent protein family and a FMN-based fluorescent reporter were not successful. NanoLuc oxidizes the exogenously-added substrate furimazine to produce glow-type bioluminescence (Emax=460 nm) with a signal half-life of 2 hr. […]

First: A2: RBS, SEQ ID NO: 15 (DNA TCCCGCATTTTAAAATAAAATAAATTATTTTTTTACTTAAACGAAT; chemistry not fully specified)
Second: A3: RBS, SEQ ID NO: 24 (DNA TCCCGCATTTTAAAATAAAATAAATTATTAGTTTAGTTAAACGAAT; chemistry not fully specified)
The “Average Luminescence (RLU/CFU)” value of the first is higher: 0.03616 RLU/CFU for the first, 0.02867 RLU/CFU for the second.

First: A4: RBS, SEQ ID NO: 29 (DNA TCCCGCATTTTAAAATAAAATAAATTATTAATTTAATTAAACGAAT; chemistry not fully specified)
Second: A5: RBS, SEQ ID NO: 32 (DNA TCCCGCATTTTAAAATAAAATAAATTATTTCTTTACTTAAACGAAT; chemistry not fully specified)
The “Average Luminescence (RLU/CFU)” value of the first is higher: 0.02664 RLU/CFU for the first, 0.02579 RLU/CFU for the second.

First: A6: RBS, SEQ ID NO: 33 (DNA TCCCGCATTTTAAAATAAAATAAATTATTTCTTTAATTAAACGAAT; chemistry not fully specified)
Second: A7: RBS, SEQ ID NO: 34 (DNA TCCCGCATTTTAAAATAAAATAAATTATTAGTTTAATTAAACGAAT; chemistry not fully specified)
The “Average Luminescence (RLU/CFU)” value of the first is higher: 0.0256 RLU/CFU for the first, 0.02467 RLU/CFU for the second.

Going from “A8: RBS, SEQ ID NO: 44 (DNA TCCCGCATTTTAAAATAAAATAAATTATTAGTTTATTTAAACGAAT; chemistry not fully specified)” to “A9: RBS, SEQ ID NO: 46 (DNA TCCCGCATTTTAAAATAAAATAAATTATTGTTTTACTTAAACGAAT; chemistry not fully specified)”, the “Average Luminescence (RLU/CFU)” value falls from 0.02026 RLU/CFU to 0.0186 RLU/CFU.

Compared with “A10: RBS, SEQ ID NO: 49 (DNA TCCCGCATTTTAAAATAAAATAAATTATTGCTTTAGTTAAACGAAT; chemistry not fully specified)”, “A12: RBS, SEQ ID NO: 56 (DNA TCCCGCATTTTAAAATAAAATAAATTATTGTTTTAATTAAACGAAT; chemistry not fully specified)” is lower in “Average Luminescence (RLU/CFU)” value: 0.01835 RLU/CFU for the first, 0.01552 RLU/CFU for the second.

Compared with “A13: RBS, SEQ ID NO: 58 (DNA TCCCGCATTTTAAAATAAAATAAATTATTGATTTACTTAAACGAAT; chemistry not fully specified)”, “A14: RBS, SEQ ID NO: 59 (DNA TCCCGCATTTTAAAATAAAATAAATTATTTCTTTATTTAAACGAAT; chemistry not fully specified)” is lower in “Average Luminescence (RLU/CFU)” value: 0.01484 RLU/CFU for the first, 0.01475 RLU/CFU for the second.

First: A15: RBS, SEQ ID NO: 64 (DNA TCCCGCATTTTAAAATAAAATAAATTATTATTTTACTTAAACGAAT; chemistry not fully specified)
Second: A16: RBS, SEQ ID NO: 65 (DNA TCCCGCATTTTAAAATAAAATAAATTATTTATTTACTTAAACGAAT; chemistry not fully specified)
The “Average Luminescence (RLU/CFU)” value of the first is higher: 0.01335 RLU/CFU for the first, 0.01329 RLU/CFU for the second.

Compared with “A17: RBS, SEQ ID NO: 66 (DNA TCCCGCATTTTAAAATAAAATAAATTATTTTTTTAGTTAAACGAAT; chemistry not fully specified)”, “A18: RBS, SEQ ID NO: 69 (DNA TCCCGCATTTTAAAATAAAATAAATTATTCATTTATTTAAACGAAT; chemistry not fully specified)” is lower in “Average Luminescence (RLU/CFU)” value: 0.013 RLU/CFU for the first, 0.01237 RLU/CFU for the second.

First: A19: RBS, SEQ ID NO: 70 (DNA TCCCGCATTTTAAAATAAAATAAATTATTTTTTTATTTAAACGAAT; chemistry not fully specified)
Second: A20: RBS, SEQ ID NO: 71 (DNA TCCCGCATTTTAAAATAAAATAAATTATTTATTTATTTAAACGAAT; chemistry not fully specified)
The “Average Luminescence (RLU/CFU)” value of the first is higher: 0.01206 RLU/CFU for the first, 0.01179 RLU/CFU for the second.

First: A21: RBS, SEQ ID NO: 73 (DNA TCCCGCATTTTAAAATAAAATAAATTATTTATTTACTTAAACGAAT; chemistry not fully specified)
Second: A22: RBS, SEQ ID NO: 78 (DNA TCCCGCATTTTAAAATAAAATAAATTATTGCTTTATTTAAACGAAT; chemistry not fully specified)
The “Average Luminescence (RLU/CFU)” value of the first is higher: 0.01018 RLU/CFU for the first, 0.009586 RLU/CFU for the second.

Going from “A23: RBS, SEQ ID NO: 79 (DNA TCCCGCATTTTAAAATAAAATAAATTATTAGTTTACTTAAACGAAT; chemistry not fully specified)” to “A24: RBS, SEQ ID NO: 83 (DNA TCCCGCATTTTAAAATAAAATAAATTATTCTTTTACTTAAACGAAT; chemistry not fully specified)”, the “Average Luminescence (RLU/CFU)” value falls from 0.009507 RLU/CFU to 0.009158 RLU/CFU.

Compared with “A25: RBS, SEQ ID NO: 84 (DNA TCCCGCATTTTAAAATAAAATAAATTATTCCTTTAATTAAACGAAT; chemistry not fully specified)”, “A26: RBS, SEQ ID NO: 87 (DNA TCCCGCATTTTAAAATAAAATAAATTATTACTTTATTTAAACGAAT; chemistry not fully specified)” is lower in “Average Luminescence (RLU/CFU)” value: 0.008671 RLU/CFU for the first, 0.008113 RLU/CFU for the second.

First: A27: RBS, SEQ ID NO: 89 (DNA TCCCGCATTTTAAAATAAAATAAATTATTGGTTTAGTTAAACGAAT; chemistry not fully specified)
Second: A28: RBS, SEQ ID NO: 94 (DNA TCCCGCATTTTAAAATAAAATAAATTATTCTTTTATTTAAACGAAT; chemistry not fully specified)
The “Average Luminescence (RLU/CFU)” value of the first is higher: 0.007908 RLU/CFU for the first, 0.006884 RLU/CFU for the second.

First: A29: RBS, SEQ ID NO: 95 (DNA TCCCGCATTTTAAAATAAAATAAATTATTCCTTTATTTAAACGAAT; chemistry not fully specified)
Second: A30: RBS, SEQ ID NO: 101 (DNA TCCCGCATTTTAAAATAAAATAAATTATTCCTTTACTTAAACGAAT; chemistry not fully specified)
The “Average Luminescence (RLU/CFU)” value of the first is higher: 0.006833 RLU/CFU for the first, 0.005604 RLU/CFU for the second.

Compared with “A31: RBS, SEQ ID NO: 103 (DNA TCCCGCATTTTAAAATAAAATAAATTATTGGTTTATTTAAACGAAT; chemistry not fully specified)”, “A32: RBS, SEQ ID NO: 104 (DNA TCCCGCATTTTAAAATAAAATAAATTATTCTTTTAGTTAAACGAAT; chemistry not fully specified)” is lower in “Average Luminescence (RLU/CFU)” value: 0.005462 RLU/CFU for the first, 0.005311 RLU/CFU for the second.

Going from “A33: RBS, SEQ ID NO: 106 (DNA TCCCGCATTTTAAAATAAAATAAATTATTTCTTTAGTTAAACGAAT; chemistry not fully specified)” to “A34: RBS, SEQ ID NO: 107 (DNA TCCCGCATTTTAAAATAAAATAAATTATTTGTTTACTTAAACGAAT; chemistry not fully specified)”, the “Average Luminescence (RLU/CFU)” value falls from 0.005258 RLU/CFU to 0.005181 RLU/CFU.

Going from “A35: RBS, SEQ ID NO: 110 (DNA TCCCGCATTTTAAAATAAAATAAATTATTCATTTAGTTAAACGAAT; chemistry not fully specified)” to “A36: RBS, SEQ ID NO: 111 (DNA TCCCGCATTTTAAAATAAAATAAATTATTTGTTTAGTTAAACGAAT; chemistry not fully specified)”, the “Average Luminescence (RLU/CFU)” value falls from 0.004513 RLU/CFU to 0.004309 RLU/CFU.

Going from “A37: RBS, SEQ ID NO: 113 (DNA TCCCGCATTTTAAAATAAAATAAATTATTTGTTTAATTAAACGAAT; chemistry not fully specified)” to “A38: RBS, SEQ ID NO: 114 (DNA TCCCGCATTTTAAAATAAAATAAATTATTCCTTTAGTTAAACGAAT; chemistry not fully specified)”, the “Average Luminescence (RLU/CFU)” value falls from 0.003964 RLU/CFU to 0.003824 RLU/CFU.
